We go through 26 compounds from the Kinase Knowledgebase extract (Sharma et al. 2016).

The experiment deals with EGFR (UniProt P00533).
EGFR, sequence (P00533 whole entry, looked up): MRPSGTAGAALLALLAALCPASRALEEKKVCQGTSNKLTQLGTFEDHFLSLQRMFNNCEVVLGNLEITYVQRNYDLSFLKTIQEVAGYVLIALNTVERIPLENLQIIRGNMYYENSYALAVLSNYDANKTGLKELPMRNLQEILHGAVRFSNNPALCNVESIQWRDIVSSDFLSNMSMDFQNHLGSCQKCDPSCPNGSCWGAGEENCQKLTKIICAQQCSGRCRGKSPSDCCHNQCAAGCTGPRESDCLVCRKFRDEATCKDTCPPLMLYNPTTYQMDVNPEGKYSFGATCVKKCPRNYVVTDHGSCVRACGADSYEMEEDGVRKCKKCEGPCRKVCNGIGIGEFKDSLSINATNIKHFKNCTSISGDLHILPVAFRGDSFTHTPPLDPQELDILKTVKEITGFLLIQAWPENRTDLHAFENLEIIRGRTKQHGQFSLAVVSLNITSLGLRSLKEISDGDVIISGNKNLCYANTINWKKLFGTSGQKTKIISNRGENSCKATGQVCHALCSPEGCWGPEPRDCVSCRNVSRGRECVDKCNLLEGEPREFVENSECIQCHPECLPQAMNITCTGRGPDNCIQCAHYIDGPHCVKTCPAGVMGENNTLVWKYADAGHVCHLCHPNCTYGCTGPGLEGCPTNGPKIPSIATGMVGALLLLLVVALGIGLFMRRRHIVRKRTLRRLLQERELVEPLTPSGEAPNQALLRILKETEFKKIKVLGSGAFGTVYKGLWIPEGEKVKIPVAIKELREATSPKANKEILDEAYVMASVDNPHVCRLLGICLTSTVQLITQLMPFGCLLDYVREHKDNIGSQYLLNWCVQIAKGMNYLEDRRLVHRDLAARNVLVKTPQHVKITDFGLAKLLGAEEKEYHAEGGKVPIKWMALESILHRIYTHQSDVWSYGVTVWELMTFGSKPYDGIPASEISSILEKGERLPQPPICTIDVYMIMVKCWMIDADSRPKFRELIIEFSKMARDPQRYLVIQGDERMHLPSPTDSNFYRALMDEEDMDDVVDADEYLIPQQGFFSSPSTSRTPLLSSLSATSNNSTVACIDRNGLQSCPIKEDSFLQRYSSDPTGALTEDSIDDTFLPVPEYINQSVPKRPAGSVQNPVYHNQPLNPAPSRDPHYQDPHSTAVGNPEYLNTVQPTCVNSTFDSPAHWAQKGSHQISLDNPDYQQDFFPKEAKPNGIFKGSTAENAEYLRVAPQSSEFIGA
As usually defined, the IC50 is the concentration at which inhibition is half-maximal. Take `COc1cc2c(Nc3ccc(Cl)c(Cl)c3)ncnc2cc1OCCC1CCCN1C` (stereo unspecified): the IC50 is less than 50 nM.

Compound `COc1cc2c(Nc3cccc(Br)c3)ncnc2cc1O[C@@H]1CO[C@@H]2[C@H]1OC[C@H]2F` registered an IC50 of less than 50 nM.

`COc1cc2c(Nc3cccc(Br)c3Cl)ncnc2cc1OCC1CN(C)CCO1` (stereo unspecified): the concentration for half-maximal inhibition (IC50) was less than 50 nM.

In turn, `COc1cc2c(Nc3ccc(Cl)c(Cl)c3)ncnc2cc1OCc1nc(-c2ccc(O)c(C(N)=O)c2)cs1` yielded an IC50 of less than 50 nM.

In the case of `COc1cc2c(Nc3ccc(Cl)c(Cl)c3)ncnc2cc1OCc1csc(C2CCCCN2)n1` (stereo unspecified), the concentration for half-maximal inhibition (IC50) is less than 50 nM.

In the case of `COc1cc2c(Nc3ccc(Cl)c(Cl)c3)ncnc2cc1OCc1nc(-c2ccc(C(C)(C)C)cc2)no1`, the IC50 lay in the range of 50 to 1000 nM.

Compound `COc1cc2c(Nc3ccc(Cl)c(Cl)c3)ncnc2cc1OCc1nc(N(C)C)no1` returned a half-maximal inhibitory concentration (IC50) of less than 50 nM.

In turn, `COc1cc2c(Nc3ccc(Br)c(Cl)c3F)ncnc2cc1OC[C@H]1CN2CCOC[C@H]2CO1` gave an IC50 of less than 50 nM.

In turn, `COc1cc2c(Nc3ccc(Cl)c(Cl)c3)ncnc2cc1OCC1CN(CCF)CCO1` (stereo unspecified) gave an IC50 of less than 50 nM.

`CCCCCN1CCOC(COc2cc3ncnc(Nc4ccc(Cl)c(Cl)c4)c3cc2OC)C1` (stereo unspecified): the IC50 was less than 50 nM.

Take `COc1cc2c(Nc3ccc(Cl)c(Cl)c3)ncnc2cc1OCc1csc(COC(=O)c2ccccc2)n1`: the IC50 is less than 50 nM.

Compound `COc1cc2c(Nc3ccc(Cl)c(Cl)c3)ncnc2cc1OCc1csc([C@@H]2CSCN2)n1` gave an IC50 of less than 50 nM.

In the case of `COc1cc2c(Nc3ccc(Cl)c(Cl)c3)ncnc2cc1OC[C@H]1CN2CCC[C@@H]2CO1`, the IC50 was less than 50 nM.

As for `COc1cc2c(Nc3ccc(F)c(Cl)c3F)ncnc2cc1OC[C@@H]1CN2CCC[C@H]2CO1`, the IC50 was less than 50 nM.

As to `COc1cc2c(Nc3ccc(Cl)c(Cl)c3)ncnc2cc1OCC1CN(CCO)CCO1` (stereo unspecified), the IC50 is less than 50 nM.

In turn, `COc1cc2c(Nc3ccc(Cl)c(Cl)c3)ncnc2cc1OCC1CN(CCC2CCCCC2)CCCO1` (stereo unspecified) registered an IC50 of less than 50 nM.

The compound `COc1cc2c(Nc3c(F)cc(F)cc3Br)ncnc2cc1O[C@@H]1CO[C@@H]2[C@H]1OC[C@H]2F` came in with a concentration for half-maximal inhibition (IC50) of less than 50 nM.

Compound `COc1cc2c(Nc3ccc(Cl)c(Cl)c3)ncnc2cc1OCC1CC1` came in with a 50% inhibitory concentration (IC50) of less than 50 nM.

As for `COc1cc2c(Nc3ccc(Cl)c(Cl)c3)ncnc2cc1OC1CC2CCC(C1)N2C` (stereo unspecified), the IC50 was less than 50 nM.

Consider `COc1cc2c(Nc3ccc(Cl)c(Cl)c3)ncnc2cc1OCc1csc(C2CCNCC2)n1`, for which the IC50 is less than 50 nM.

With `COc1cc2c(Nc3ccc(Br)c(Cl)c3F)ncnc2cc1O[C@@H]1CO[C@@H]2[C@H]1OC[C@H]2F`, the IC50 was less than 50 nM.

Compound `COc1cc2c(Nc3cc(Cl)c(Br)cc3F)ncnc2cc1OC[C@@H]1CN2CCOC[C@H]2CO1` came in with an IC50 of less than 50 nM.

As for `COc1cc2c(Nc3ccc(Cl)c(Cl)c3)ncnc2cc1OCc1ccc2nc(C(F)(F)F)cc(Cl)c2c1`, the IC50 lay within 50 to 1000 nM.

Take `COc1cc2c(Nc3ccc(Br)c(Cl)c3F)ncnc2cc1OC[C@H]1C[C@@H]2CN(C)C[C@@H]2C1`: the IC50 was less than 50 nM.

On to `COc1cc2c(Nc3ccc(Cl)c(Cl)c3)ncnc2cc1OCC1CN(C2CCOCC2)CCO1` (stereo unspecified), for which the IC50 is less than 50 nM.

For the compound `COc1cc2c(Nc3ccc(Cl)c(Cl)c3)ncnc2cc1OC[C@@H]1CN2CCC[C@H]2CO1`, the IC50 is less than 50 nM.
